{"source": "patent US11912794B2", "about": "“Modulation of structured polypeptide specificity” (BicycleRD Limited, priority 2011, dated 2024)", "note": "Numbered stars: 1 amine (or outer) side, 2 acyl side, 3 side chain; on linkers, the order of the positions; unused ones are H or OH. Bridge positions count the residues as written; N and C are the ends. Square brackets hold non-standard residues; d marks the D form. Peptide text beside a SMILES is read from it. Pro(trans-4-F) = O=C(O)[C@@H]1C[C@@H](F)CN1; Tpi = O=C(O)[C@@H]1Cc2c([nH]c3ccccc23)CN1; Dip = N[C@H](C(=O)O)C(c1ccccc1)c1ccccc1; X1 = O=C([C@@H]1Cc2ccccc2N1[*:1])[*:2]; 1Nal = N[C@@H](Cc1cccc2ccccc12)C(=O)O; TBMB = c1c(C[*:1])cc(C[*:3])cc1C[*:2]; NMeR = CN[C@@H](CCCNC(=N)N)C(=O)O; hArg = N=C(N)NCCCC[C@H](N)C(=O)O; 3Pal = N[C@@H](Cc1cccnc1)C(=O)O; 4Pal = N[C@@H](Cc1ccncc1)C(=O)O; Cha = N[C@@H](CC1CCCCC1)C(=O)O; Dpg = CCCC(N)(CCC)C(=O)O; Aze = O=C(O)[C@@H]1CCN1", "data": [{"test_system": "not listed separately", "assay": "Plasma stability profiling method 1 (35% plasma, MALDI-TOF, qualitative)", "type": "in vitro ADME, rat", "details": "35% rat plasma, 37 deg C, method 1, comparative estimate", "experimental": "Three methods were employed to assess the stability of bicycles (peptides conjugated to molecular scaffolds) in plasma.\nA rapid plasma stability profiling assay was developed that employed mass spectrometric detection (MALDI-TOF, Voyager DE, Applied Biosystems) of the parent mass, until the time when the parent peptide mass was no longer observable. Specifically, 200 uM of peptide was incubated in the presence of 35% rat or human plasma (Sera labs, using citrate as anticoagulant) at 37 deg C., which was supplemented with 1×PBS (derived from a 10×PBS Stock, Sigma). At various time points (i.e. t=0, 3, 24 hrs, henceafter daily up to 10 days), 2 uL of sample was added to 18 uL of 30 mM ammonium bicarbonate in a 1:1 mixture of acetonitrile:H2O. Samples were frozen at −80 deg C. until the time of analysis. For mass spectrometric analysis that determines the approximate detection window of the peptide, the acetonitrile:H2O-diluted sample of a given time point was spotted directly (0.7 uL) onto the MALDI plate. Matrix (alpha-cyanocinnamic acid, Sigma, prepared as a saturated solution in 1:1 acetonitrile:water containing 0.1% trifluoroacetic acid) was layered over the sample (1 uL). At a similar laser intensity setting on the MALDI TOF, the time could then be determined until parent peptide was no longer detectable. It should be noted that this is a qualitative assay serves to detect relative changes in plasma stability.", "units": {"Observable in rat plasma, for days": "days"}, "values": [{"smiles": "CC(=O)N[C@H]1CSCc2cc3cc(c2)CSC[C@H](NC(=O)[C@H](CCCNC(=N)N)NC(=O)[C@H](C)NC(=O)[C@@H]2CCCN2C(=O)[C@H](C(c2ccccc2)c2ccccc2)NC(=O)[C@H](CO)NC1=O)C(=O)N[C@@H](CC(C)C)C(=O)N[C@@H](Cc1c[nH]cn1)C(=O)N[C@@H](CCC(N)=O)C(=O)N[C@@H](CC(=O)O)C(=O)N[C@@H](CC(C)C)C(=O)N[C@H](C(N)=O)CSC3", "note": "[Ac-(06-34-18) 3,3-DPA2] (Ac-CS[Dip]PARCLHQDLC-NH2; linker 1-7-13 via TBMB)", "Observable in rat plasma, for days": 2}, {"smiles": "CC(=O)N[C@H]1CSCc2cc3cc(c2)CSC[C@H](NC(=O)[C@H](CCCNC(=N)N)N(C)C(=O)[C@H](C)NC(=O)[C@@H]2CCN2C(=O)[C@H](Cc2c[nH]c4ccccc24)NC(=O)[C@H](CO)NC1=O)C(=O)N[C@@H](CC(C)C)C(=O)N[C@@H](Cc1c[nH]cn1)C(=O)N[C@@H](CCC(N)=O)C(=O)N[C@@H](CC(=O)O)C(=O)N[C@@H](CC(C)C)C(=O)N[C@H](C(N)=O)CSC3", "note": "[Ac-(06-34-18) Aze3 NMeArg5] (Ac-CSW[Aze]A[NMeR]CLHQDLC-NH2; linker 1-7-13 via TBMB)", "Observable in rat plasma, for days": ">10"}, {"smiles": "CC(=O)N[C@H]1CSCc2cc3cc(c2)CSC[C@H](NC(=O)[C@H](CCCNC(=N)N)NC(=O)[C@H](C)NC(=O)[C@@H]2C[C@@H](F)CN2C(=O)[C@H](Cc2c[nH]c4ccccc24)NC(=O)[C@H](CO)NC1=O)C(=O)N[C@@H](CC(C)C)C(=O)N[C@@H](Cc1c[nH]cn1)C(=O)N[C@@H](CCC(N)=O)C(=O)N[C@@H](CC(=O)O)C(=O)N[C@@H](CC(C)C)C(=O)N[C@H](C(N)=O)CSC3", "note": "[Ac-(06-34-18) 4FluoPro3] (Ac-CSW[Pro(trans-4-F)]ARCLHQDLC-NH2; linker 1-7-13 via TBMB)", "Observable in rat plasma, for days": 2}, {"smiles": "CC(=O)N[C@H]1CSCc2cc3cc(c2)CSC[C@H](NC(=O)[C@H](CCCNC(=N)N)NC(=O)[C@H](C)NC(=O)[C@@H]2CCCN2C(=O)[C@H](CC2CCCCC2)NC(=O)[C@H](CO)NC1=O)C(=O)N[C@@H](CC(C)C)C(=O)N[C@@H](Cc1c[nH]cn1)C(=O)N[C@@H](CCC(N)=O)C(=O)N[C@@H](CC(=O)O)C(=O)N[C@@H](CC(C)C)C(=O)N[C@H](C(N)=O)CSC3", "note": "[Ac-(06-34-18) Cha2] (Ac-CS[Cha]PARCLHQDLC-NH2; linker 1-7-13 via TBMB)", "Observable in rat plasma, for days": 2}, {"smiles": "CC(=O)N[C@H]1CSCc2cc3cc(c2)CSC[C@H](NC(=O)[C@H](CCCCNC(=N)N)NC(=O)[C@H](C)NC(=O)[C@@H]2CCN2C(=O)[C@H](Cc2c[nH]c4ccccc24)NC(=O)[C@H](CO)NC1=O)C(=O)N[C@@H](CC(C)C)C(=O)N[C@@H](Cc1c[nH]cn1)C(=O)N[C@@H](CCC(N)=O)C(=O)N[C@@H](CC(=O)O)C(=O)N[C@@H](CC(C)C)C(=O)N[C@H](C(N)=O)CSC3", "note": "[Ac-(06-34-18) Aze3 HomoArg5] (Ac-CSW[Aze]A[hArg]CLHQDLC-NH2; linker 1-7-13 via TBMB)", "Observable in rat plasma, for days": ">10"}, {"smiles": "CC(=O)N[C@H]1CSCc2cc3cc(c2)CSC[C@H](NC(=O)[C@H](CCCNC(=N)N)NC(=O)[C@H](C)NC(=O)[C@@H]2Cc4c([nH]c5ccccc45)CN2C(=O)[C@H](Cc2c[nH]c4ccccc24)NC(=O)[C@H](CO)NC1=O)C(=O)N[C@@H](CC(C)C)C(=O)N[C@@H](Cc1c[nH]cn1)C(=O)N[C@@H](CCC(N)=O)C(=O)N[C@@H](CC(=O)O)C(=O)N[C@@H](CC(C)C)C(=O)N[C@H](C(N)=O)CSC3", "note": "[Ac-(06-34-18) NorHar3] (Ac-CSW[Tpi]ARCLHQDLC-NH2; linker 1-7-13 via TBMB)", "Observable in rat plasma, for days": 2}, {"smiles": "CC(=O)N[C@H]1CSCc2cc3cc(c2)CSC[C@H](NC(=O)[C@H](CCCNC(=N)N)NC(=O)[C@H](C)NC(=O)[C@@H]2CCCN2C(=O)[C@H](Cc2cccnc2)NC(=O)[C@H](CO)NC1=O)C(=O)N[C@@H](CC(C)C)C(=O)N[C@@H](Cc1c[nH]cn1)C(=O)N[C@@H](CCC(N)=O)C(=O)N[C@@H](CC(=O)O)C(=O)N[C@@H](CC(C)C)C(=O)N[C@H](C(N)=O)CSC3", "note": "[Ac-(06-34-18) 3Pal2] (Ac-CS[3Pal]PARCLHQDLC-NH2; linker 1-7-13 via TBMB)", "Observable in rat plasma, for days": 2}, {"smiles": "CCCC1(CCC)NC(=O)[C@@H](NC(C)=O)CSCc2cc3cc(c2)CSC[C@H](NC(=O)[C@H](CCCNC(=N)N)NC(=O)[C@H](C)NC(=O)[C@@H]2CCCN2C(=O)[C@H](Cc2c[nH]c4ccccc24)NC1=O)C(=O)N[C@@H](CC(C)C)C(=O)N[C@@H](Cc1c[nH]cn1)C(=O)N[C@@H](CCC(N)=O)C(=O)N[C@@H](CC(=O)O)C(=O)N[C@@H](CC(C)C)C(=O)N[C@H](C(N)=O)CSC3", "note": "[Ac-(06-34-18) Dpg1] (Ac-C[Dpg]WPARCLHQDLC-NH2; linker 1-7-13 via TBMB)", "Observable in rat plasma, for days": 2}, {"smiles": "CC(=O)N[C@H]1CSCc2cc3cc(c2)CSC[C@H](NC(=O)[C@H](CCCNC(=N)N)NC(=O)[C@H](C)NC(=O)[C@@H]2CCCN2C(=O)[C@H](Cc2cccc4ccccc24)NC(=O)[C@H](CO)NC1=O)C(=O)N[C@@H](CC(C)C)C(=O)N[C@@H](Cc1c[nH]cn1)C(=O)N[C@@H](CCC(N)=O)C(=O)N[C@@H](CC(=O)O)C(=O)N[C@@H](CC(C)C)C(=O)N[C@H](C(N)=O)CSC3", "note": "[Ac-(06-34-18) 1NAL2] (Ac-CS[1Nal]PARCLHQDLC-NH2; linker 1-7-13 via TBMB)", "Observable in rat plasma, for days": 2}, {"smiles": "CC(=O)N[C@H]1CSCc2cc3cc(c2)CSC[C@H](NC(=O)[C@H](CCCNC(=N)N)NC(=O)[C@H](C)NC(=O)[C@@H]2CCCN2C(=O)[C@@H]2Cc4c([nH]c5ccccc45)CN2C(=O)[C@H](CO)NC1=O)C(=O)N[C@@H](CC(C)C)C(=O)N[C@@H](Cc1c[nH]cn1)C(=O)N[C@@H](CCC(N)=O)C(=O)N[C@@H](CC(=O)O)C(=O)N[C@@H](CC(C)C)C(=O)N[C@H](C(N)=O)CSC3", "note": "[Ac-(06-34-18) NorHar2] (Ac-CS[Tpi]PARCLHQDLC-NH2; linker 1-7-13 via TBMB)", "Observable in rat plasma, for days": 2}, {"smiles": "CC(=O)N[C@H]1CSCc2cc3cc(c2)CSC[C@H](NC(=O)[C@H](CCCNC(=N)N)NC(=O)[C@H](C)NC(=O)[C@@H]2CCCN2C(=O)[C@H](Cc2ccncc2)NC(=O)[C@H](CO)NC1=O)C(=O)N[C@@H](CC(C)C)C(=O)N[C@@H](Cc1c[nH]cn1)C(=O)N[C@@H](CCC(N)=O)C(=O)N[C@@H](CC(=O)O)C(=O)N[C@@H](CC(C)C)C(=O)N[C@H](C(N)=O)CSC3", "note": "[Ac-(06-34-18) 4Pal2] (Ac-CS[4Pal]PARCLHQDLC-NH2; linker 1-7-13 via TBMB)", "Observable in rat plasma, for days": 2}, {"smiles": "CC(=O)N[C@H]1CSCc2cc3cc(c2)CSC[C@H](NC(=O)[C@H](CCCNC(=N)N)NC(=O)[C@H](C)NC(=O)[C@@H]2Cc4ccccc4N2C(=O)[C@H](Cc2c[nH]c4ccccc24)NC(=O)[C@H](CO)NC1=O)C(=O)N[C@@H](CC(C)C)C(=O)N[C@@H](Cc1c[nH]cn1)C(=O)N[C@@H](CCC(N)=O)C(=O)N[C@@H](CC(=O)O)C(=O)N[C@@H](CC(C)C)C(=O)N[C@H](C(N)=O)CSC3", "note": "[Ac-(06-34-18) Ind3] (Ac-CSW[X1]ARCLHQDLC-NH2; linker 1-7-13 via TBMB)", "Observable in rat plasma, for days": 2}, {"smiles": "CC(=O)N[C@H]1CSCc2cc3cc(c2)CSC[C@H](NC(=O)[C@H](CCCNC(=N)N)NC(=O)[C@H](CO)NC(=O)[C@@H]2CCCN2C(=O)[C@H](Cc2c[nH]c4ccccc24)NC(=O)[C@H](CO)NC1=O)C(=O)N[C@@H](CC(C)C)C(=O)N[C@@H](Cc1c[nH]cn1)C(=O)N[C@@H](CCC(N)=O)C(=O)N[C@@H](CC(=O)O)C(=O)N[C@@H](CC(C)C)C(=O)N[C@H](C(N)=O)CSC3", "note": "[Ac-(06-34-18) WPSR] (Ac-CSWPSRCLHQDLC-NH2; linker 1-7-13 via TBMB)", "Observable in rat plasma, for days": 2}]}, {"biological_target": "T1, human plasma Kallikrein (Homo sapiens, UniProt P03952)", "T1 construct": "purchased Stratech, UK", "T1 sequence (P03952 20-638)": "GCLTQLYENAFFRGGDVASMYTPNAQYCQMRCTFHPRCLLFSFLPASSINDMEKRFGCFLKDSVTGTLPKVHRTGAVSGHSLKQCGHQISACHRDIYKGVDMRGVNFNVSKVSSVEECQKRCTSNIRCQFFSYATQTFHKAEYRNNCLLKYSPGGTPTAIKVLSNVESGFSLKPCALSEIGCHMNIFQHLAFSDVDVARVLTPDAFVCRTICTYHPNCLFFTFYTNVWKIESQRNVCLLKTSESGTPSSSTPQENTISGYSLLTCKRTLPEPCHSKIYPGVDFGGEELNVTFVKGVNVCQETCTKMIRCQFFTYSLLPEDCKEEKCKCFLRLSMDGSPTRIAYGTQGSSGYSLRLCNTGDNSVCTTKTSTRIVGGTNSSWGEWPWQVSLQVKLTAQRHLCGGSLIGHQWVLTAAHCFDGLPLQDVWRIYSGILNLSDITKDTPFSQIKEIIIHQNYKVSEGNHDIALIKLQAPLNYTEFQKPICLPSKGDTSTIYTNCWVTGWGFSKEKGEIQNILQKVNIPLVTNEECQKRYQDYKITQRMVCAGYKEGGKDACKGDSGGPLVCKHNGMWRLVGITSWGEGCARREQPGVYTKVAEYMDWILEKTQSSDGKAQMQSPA", "assay": "Functional enzyme inhibition assay, fluorogenic substrate Z-PheArg-AMC", "type": "biochemical", "details": "Ki (nM) (human kallikrein), Ac-06-34-18(TMB)-NH2 series", "experimental": "Peptides were dissolved as the TFA-salts in their powder form, and stock solutions were usually prepared in water. All solutions were centrifuged and filtered ([…] syringe filters) prior absorption measurement at 280 nm. […] For peptides containing non-natural amino acids with suspected chromophoric properties (i.e. NorHar, 4PhenylPro, 3PaI, 4PaI, Tic, 4GuanPhe, 4,4-BPAI, 3,3-DPA, 1NAI, 2NAI, 4BenzylPro, Ind) concentrations were determined by weighing the powder and dissolving the peptide in a defined quantity of water.", "units": {"Ki": "nM"}, "values": [{"smiles": "CC(=O)N[C@H]1CSCc2cc3cc(c2)CSC[C@H](NC(=O)[C@H](CCCNC(=N)N)NC(=O)[C@H](Cc2cccc4ccccc24)NC(=O)[C@@H]2CCCN2C(=O)[C@H](Cc2ccccc2)NC(=O)[C@H](CO)NC1=O)C(=O)N[C@@H](CC(C)C)C(=O)N[C@@H](Cc1c[nH]cn1)C(=O)N[C@@H](CCC(N)=O)C(=O)N[C@@H](CC(=O)O)C(=O)N[C@@H](CC(C)C)C(=O)N[C@H](C(N)=O)CSC3", "note": "[Ac-(06-34-18) Phe2 1Nal4] (Ac-CSFP[1Nal]RCLHQDLC-NH2; linker 1-7-13 via TBMB)", "Ki": 13.5}, {"smiles": "CN=C(NC)NCCC[C@@H]1NC(=O)[C@H](C)NC(=O)[C@@H]2CCCN2C(=O)[C@H](Cc2c[nH]c3ccccc23)NC(=O)[C@H](CO)NC(=O)[C@@H](NC(C)=O)CSCc2cc3cc(c2)CSC[C@H](NC1=O)C(=O)N[C@@H](CC(C)C)C(=O)N[C@@H](Cc1c[nH]cn1)C(=O)N[C@@H](CCC(N)=O)C(=O)N[C@@H](CC(=O)O)C(=O)N[C@@H](CC(C)C)C(=O)N[C@H](C(N)=O)CSC3", "note": "[Ac-(06-34-18) SDMA5]", "Ki": 1410}]}]}
